Test results published in US6994671B2, “Apparatus and method for screening, olfactory mucosa stimulating compound found by the screening method, and therapeutic apparatus and electrode section for measurement” (Matsushita Electric Industrial Co., Ltd., priority 2000, dated 2006).

Columns and labels:
olfactory mucosa = experiment: Electrical signal in the olfactory bulb on spraying the compound toward the olfactory mucosa, measured with implanted micro electrodes; type: in vivo; conditions: rat, sprayed with air for 5 minutes; FIG. 5 (a) vs (b)
Description: A two-week-old rat was used as a test animal. The measuring electrode portion 10 shown in FIG. 4 was implanted into the rat by a surgical operation. In the measuring electrode portion 10, the length of the micro electrode 16a was 100 μm, and the interval between adjacent micro electrodes 16a in each electrode column 17 was 500 μm. Platinum was used as a conductive material for the needle-shaped conductive lead 16. Polyimide was used as the insulative film. […] In order to attach the measuring electrode portion 10 to the rat, Nembutal (barbiturate) was injected into the abdominal cavity of the rat in a quantity equal to […], so as to anesthetize the rat, and the anesthetized rat was fixed in the prone position. […] The response induced in the olfactory bulb of the rat was recorded in the form of an electrical signal from each micro electrode 16a of the measuring electrode portion 10. […] At the same time, the blood pressure and the heart rate of the rat were measured when cineole was sprayed on the rat. […] After the olfactory bulb of the rat had stabilized, cineole was sprayed into the test animal fixing device 32 together with air at an oxygen concentration 5% higher than normal air, and a response of the olfactory bulb of the rat obtained at that time was recorded in the form of an electrical signal from each micro electrode 16a of the measuring electrode portion 10.

rat = experiment: Blood pressure and heart rate of the rat while the compound is sprayed; type: in vivo
Description: The test animal fixing device 32 has a means for measuring physiological responses induced in an organism, such as the blood pressure, the heart rate, etc., of the test animal fixed therein. Measurement results obtained by the measuring means are supplied to the processing apparatus 36. Further, measurement results of the blood pressure, the heart rate, and the like, of the rat fixed in the test animal fixing device 32, which are obtained when the air containing the olfactory mucosa stimulating compound is sprayed from the atomizing nozzle 33, are supplied to the processing apparatus 36. The processing apparatus 36 determines the efficacy of the olfactory mucosa stimulating compound sprayed on the rat, based on the analyzed electrical signal pattern in the olfactory bulb and the measurement results of the blood pressure, the heart rate, and the like, of the rat. For example, if a decrease in the blood pressure of the rat is detected as a result of a stimulation of the olfactory mucosa by an olfactory mucosa stimulating compound, it is determined that the olfactory mucosa stimulating compound suppresses brain cells so as to induce a physiological response that lowers the blood pressure. Accordingly, the olfactory mucosa stimulating compound is identified as a compound effective in lowering the blood pressure. In this case, the electrical signal pattern obtained by the measuring electrode portion 10 is stored as data in the processing apparatus 36. After such an implantation operation of the measuring electrode portion 10, the rat was reared for three weeks under an environment which was cleaned with activated carbon so as to remove substances that produce aromas. Then, three weeks after the surgical operation, the rat was fixed in the test animal fixing device 32 of the screening apparatus 1 shown in FIG. 1. The terminal line 38, which extended from the body of the rat, was connected to the signal amplitude stimulating apparatus 34 outside the test animal fixing device 32. […] The response induced in the olfactory bulb of the rat was recorded in the form of an electrical signal from each micro electrode 16a of the measuring electrode portion 10. […] At the same time, the blood pressure and the heart rate of the rat were measured when cineole was sprayed on the rat. […] After the olfactory bulb of the rat had stabilized, cineole was sprayed into the test animal fixing device 32 together with air at an oxygen concentration 5% higher than normal air, and a response of the olfactory bulb of the rat obtained at that time was recorded in the form of an electrical signal from each micro electrode 16a of the measuring electrode portion 10.

[1] = cineole sprayed with air, FIG. 6
[2] = result stated for normal oxygen concentration

Question: How did the “stimulation of the olfactory mucosa (electrical signals of the olfactory bulb, 16 micro electrodes)” value (olfactory mucosa) turn out when `CC12CCC(CC1)C(C)(C)O2` [cineole] was run?
Answer: The value was “stimulated the olfactory mucosa”.

Question: And the blood pressure (rat; [1])?
Answer: Its blood pressure is “increases in the blood pressure”.

Question: What about the heart rate (rat; [1]) of the same compound?
Answer: The heart rate was “increases”.

Question: What about the “blood pressure, air at normal oxygen concentration versus air at oxygen concentration 5% higher than normal air” value (rat; [2]) of the same compound?
Answer: Its value is “increased more greatly”.

Question: And the “heart rate, air at normal oxygen concentration versus air at oxygen concentration 5% higher than normal air” value (rat; [2])?
Answer: The value was “increased more greatly”.
